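Interpolation was linear, between the two tested concentrations surrounding the appropriate level; five concentrations were tested over 48 hours in 96-well plates. At the GI50, growth is halved. Definition used: TGI = concentration required for complete inhibition of growth.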 Where a SMILES comes first, the peptide text is derived from it. The star is where a group is joined. Boc = CC(C)(C)OC(=O)*
Assays:
Assay in all cases: NCI tumour cell line growth inhibition, 48 h
786-0 renal = tested on: 786-0 renal
HOP-92 NSCLC = tested on: HOP-92 NSCLC
MALME-3M melanoma = tested on: MALME-3M melanoma
MDA-N = tested on: MDA-N
NCI/ADR-RES ovarian = tested on: NCI/ADR-RES ovarian
OVCAR-5 ovarian = tested on: OVCAR-5 ovarian
SF-268 CNS = tested on: SF-268 CNS
SK-MEL-28 melanoma = tested on: SK-MEL-28 melanoma
UACC-257 melanoma = tested on: UACC-257 melanoma
OVCAR-4 ovarian = tested on: OVCAR-4 ovarian

SMILES	TGI (786-0 renal) [µM]	TGI (HOP-92 NSCLC) [µM]	TGI (MALME-3M melanoma) [µM]	TGI (MDA-N) [µM]	TGI (NCI/ADR-RES ovarian) [µM]	TGI (OVCAR-5 ovarian) [µM]	TGI (SF-268 CNS) [µM]	TGI (SK-MEL-28 melanoma) [µM]	TGI (UACC-257 melanoma) [µM]	TGI (OVCAR-4 ovarian) [µM]	GI50 (HOP-92 NSCLC) [µM]	GI50 (MALME-3M melanoma) [µM]	GI50 (MDA-N) [µM]	GI50 (NCI/ADR-RES ovarian) [µM]	GI50 (OVCAR-4 ovarian) [µM]	GI50 (SF-268 CNS) [µM]	GI50 (SK-MEL-28 melanoma) [µM]	GI50 (UACC-257 melanoma) [µM]
O=C1C=C2CO[C@H]3OC[C@H](O)[C@@H]1[C@@H]23	> 100	> 100	55	> 100	> 100	> 100	> 100	> 100	86.4	–	–	–	–	–	–	–	–	–
NS(=O)(=O)c1ccc(Nc2c3ccccc3nc3c(C(=O)NCCCN(CCO)CCO)cccc23)cc1	45.2	> 100	42	41.9	> 100	98.4	45.5	41.9	67.6	> 100	–	–	–	–	–	–	–	–
CCCC(CC)c1c(O)c(O)c(C(CC)CCC)c(C(CC)CCC)c1C(CC)CCC (stereo unspecified)	> 10	> 10	> 10	> 10	> 10	> 10	> 10	> 10	> 10	> 10	–	–	–	–	–	–	–	–
CN1C/C(=C\c2ccc(Cl)cc2)C(=O)/C(=C/c2ccc(Cl)cc2)C1	1.26	> 100	> 100	8.86	> 22.5	> 100	> 100	> 100	2.44	> 65.9	–	–	–	–	–	–	–	–
CC(NC1=NCCO1)c1cccc([N+](=O)[O-])c1 (stereo unspecified)	> 100	> 100	> 100	> 100	> 100	> 100	> 100	> 100	> 100	> 100	–	–	–	–	–	–	–	–
COCN1CCN=c2c1c1c3c(c4ccccc4n23)CCC1	> 100	> 100	> 100	> 100	> 100	> 100	> 100	> 100	> 100	> 100	–	–	–	–	–	–	–	–
Cc1nccn1S(=O)(=O)c1ccc(Br)cc1Br	> 100	75.3	> 100	50.1	> 100	> 100	> 100	> 100	> 100	> 100	–	–	–	–	–	–	–	–
Nc1ccc(-c2nc3cc(F)ccc3s2)cc1I	32	39.3	72.9	> 100	54.3	43	35.2	> 100	> 100	> 100	–	–	–	–	–	–	–	–
Cc1cc2ccccc2n1CC(=O)N1CCCC1	> 100	> 100	> 100	> 100	> 100	> 100	> 100	> 100	> 100	> 100	–	–	–	–	–	–	–	–
COc1ccccc1NC(=S)N/N=C(/C)c1ccccn1	5.17	> 100	16.7	> 100	–	> 100	–	> 100	–	> 100	–	–	–	–	–	–	–	–
Cc1ccc(C)c(COCCOCn2cc(Br)c(N)nc2=O)c1	> 100	> 100	> 100	> 100	> 100	> 100	> 100	> 100	> 100	–	–	–	–	–	–	–	–	–
COC(=O)C(Cc1c[nH]c2ccccc12)NC(=O)C(Cc1c[nH]c2ccccc12)NC(=O)C(Cc1c[nH]c2ccccc12)NC(=O)C(Cc1c[nH]c2ccccc12)NC(=O)OC(C)(C)C (stereo unspecified) (Boc-WWWW-OMe; configuration not given here)	> 100	–	> 100	55.3	–	> 100	> 100	> 100	> 100	> 100	–	–	–	–	–	–	–	–
Cc1ccc(NC(=S)Nc2c(C)n(C)n(-c3ccccc3)c2=O)cc1	> 100	> 100	> 100	> 100	> 100	> 100	> 100	> 100	> 100	–	–	–	–	–	–	–	–	–
O=C(Nc1nnc(-c2ccccc2)o1)C(SC(=S)N1CCOCC1)c1ccccc1 (stereo unspecified)	> 100	–	> 100	> 100	64.7	88.8	–	> 100	> 100	> 100	–	–	–	–	–	–	–	–
O=c1[nH]c(=O)n(COCc2ccccc2)c2ccc(Br)cc12	> 100	> 100	–	> 100	> 100	> 100	–	> 100	> 100	> 100	–	–	–	–	–	–	–	–
C[C@H](CC[C@@H](O)C(C)(C)O)[C@H]1CC[C@@]2(C)[C@@H]3CC=C4[C@@H](CC[C@H](O)C4(C)C)[C@]3(C)C(=O)C[C@]12C	> 50	–	> 50	> 50	> 50	> 50	–	> 50	> 50	> 50	–	–	–	–	–	–	–	–
Cc1cccc2nc3cccc(C(=O)NCCC[N+](C)(CCCNC(=O)c4cccc5nc6cccc(C)c6nc45)Cc4c([N+](=O)[O-])ncn4C)c3nc12	> 1100	> 1100	432	> 1100	> 1100	–	> 1100	> 1100	> 1100	> 1100	> 1100	26.2	18.1	131	14.8	19.2	403	63
CCCn1c(=O)c2ccccc2[n+]2c(-c3ccc([N+](=O)[O-])cc3)csc12	76.3	> 100	–	> 100	36.5	> 100	> 100	–	> 100	> 100	–	–	–	–	–	–	–	–
Cn1c(-c2ccc[se]2)ccc1-c1ccc(CO)[se]1	> 100	43.2	40.4	> 60.5	52.2	–	> 100	> 100	0.102	> 100	–	–	–	–	–	–	–	–
Cc1ccc(S(=O)(=O)NC(=O)NCCC(=O)O)cc1	> 100	> 100	> 100	> 100	–	> 100	> 100	> 100	> 100	> 100	–	–	–	–	–	–	–	–
CO/C(=N\N=C\c1ccc(Cl)cc1Cl)c1ccncc1	> 10	> 10	> 10	> 10	> 10	> 10	> 10	–	> 10	> 10	–	–	–	–	–	–	–	–
O=C(NNc1cn[nH]c(=O)c1Cl)/C(=C/c1ccc2c(c1)OCO2)NC(=O)c1ccccc1	> 100	> 100	–	> 100	> 100	> 100	–	> 100	> 100	> 100	–	–	–	–	–	–	–	–

— PubChem BioAssay (NCI)
